Laboratory results as given in patent publication US6433014B1, “Compounds consisting in particular of effectors of the central nervous system receptors sensitive excitatory amino acids, preparation and biological applications” (Centre National de la Recherche Scientifique (C.N.R.S.), priority 1997, dated 2002).

How the values were obtained:
[1] = tested on: ionotropic receptors (NMDA, AMPA and kainate receptors); experiment: patch clamp recording of granule cells of the cerebellum; format: cell-based, mice; details: ACPT 1 mM; NMDA or kainate 100 μM
Procedure: Culture and recording of the granule cells of the cerebellum
The granule cells of the cerebellum are cultured from 7 day-old baby mice as described by Van-Vliet, B. J., J. of Neurochemistry, 1989, .52, 1229-1239.
Recording is carried out using the technique known as a “patch clamp” in the full cell configuration and the molecules are applied using a rapid application technique.
Initially, tests were carried out in order to check whether the ACPT's were capable of activating or exercising an antagonist effect vis-à-vis the ionotropic receptors. These tests have shown that none of the ACPT enantiomers induces a current when they are placed in contact with the granule cells of the cerebellum at a concentration of 1 mM.
In the same batches, currents are on the contrary seen to be induced by NMDA (100 μM) or kainate (100 μM, which concentration allows activation of both the AMPA and kainate receptors), as envisaged given the activation of the NMDA and non-NMDA receptors.

mGluR1a = molecular target: T1, mGluR1a (Rattus norvegicus, UniProt P23385); experiment: accumulation of inositol phosphates (phospholipase C activation) in transfected HEK 293 cells expressing mGluR1a; format: cell-based
T1 construct: expressed in transfected cells; host or cells: HEK 293
Procedure: (§1) For this purpose, the activation of phospholipase C was measured (accumulation of inositol phosphates).
(§2) The HEK 293 cells are cultured in a Dulbecco's modified Eagle medium (DMEM, Gibco BRL) to which 10% of foetal calf serum has been added, and transfected by electroporation as previously described by Gomeza et al., Molecular Pharmacology, 1996, 50:923-930 (1996).
(§3) The electroporation is carried out in a total volume of 300 μl with 10 μg of supporting DNA, plasmid DNA containing mGluR1a (0.3 μg), mGluR2 (2 μg) or mGluR4a (5 μg) and 10^7 cells.
(§4) Determination of the accumulation of inositol phosphates (IP).
(§5) The determination of the accumulation of IP in transfected cells is carried out as described by Gomeza after labelling the cells for approximately 14 hours with [^3H]-myo-inositol (23.4 Ci/mol, NEN, France).
(§6) Stimulation is carried out for 30 minutes in a medium containing 10 mM LiCl in the presence of the drugs tested. The formation of the basic IP is determined after 30 minutes of incubation in the presence of 10 mM LiCl and pyruvate glutamate transaminase (1 U/ml) degrading the glutamate (Glu) and 2 mM of pyruvate in order to avoid the possible effects of Glu released by the cells. The results are expressed in the quantity of IP product with respect to the radioactivity present in the membranes.

mGluR2 = molecular target: T2, mGluR2 (Rattus norvegicus, UniProt P31421); experiment: accumulation of inositol phosphates in transfected HEK 293 cells expressing mGluR2 co-expressed with chimeric G protein; format: cell-based
T2 construct: expressed in transfected cells; host or cells: HEK 293
Procedure: as §1, §2, §3
In order to allow activation of the phospholipase C by mGluR2 and mGluR4a, which effect is easier to measure than the inhibition of the production of cAMP, these receptors are co-expressed with chimeric G, Gqo5 and Gqi9 proteins, as described by Gomeza. The pharmacological profiles of these 2 receptors determined according to this method, have already been described as identical to those characterized by measuring the inhibition of the formation of cAMP.
as §4, §5, §6

mGluR4a = molecular target: T3, mGluR4a (Rattus norvegicus, UniProt P31423); experiment: accumulation of inositol phosphates in transfected HEK 293 cells expressing mGluR4a co-expressed with chimeric G protein; format: cell-based
T3 construct: expressed in transfected cells; host or cells: HEK 293
Procedure: as §1, §2, §3, §4, §5, §6

T1 sequence (P23385 19-1199): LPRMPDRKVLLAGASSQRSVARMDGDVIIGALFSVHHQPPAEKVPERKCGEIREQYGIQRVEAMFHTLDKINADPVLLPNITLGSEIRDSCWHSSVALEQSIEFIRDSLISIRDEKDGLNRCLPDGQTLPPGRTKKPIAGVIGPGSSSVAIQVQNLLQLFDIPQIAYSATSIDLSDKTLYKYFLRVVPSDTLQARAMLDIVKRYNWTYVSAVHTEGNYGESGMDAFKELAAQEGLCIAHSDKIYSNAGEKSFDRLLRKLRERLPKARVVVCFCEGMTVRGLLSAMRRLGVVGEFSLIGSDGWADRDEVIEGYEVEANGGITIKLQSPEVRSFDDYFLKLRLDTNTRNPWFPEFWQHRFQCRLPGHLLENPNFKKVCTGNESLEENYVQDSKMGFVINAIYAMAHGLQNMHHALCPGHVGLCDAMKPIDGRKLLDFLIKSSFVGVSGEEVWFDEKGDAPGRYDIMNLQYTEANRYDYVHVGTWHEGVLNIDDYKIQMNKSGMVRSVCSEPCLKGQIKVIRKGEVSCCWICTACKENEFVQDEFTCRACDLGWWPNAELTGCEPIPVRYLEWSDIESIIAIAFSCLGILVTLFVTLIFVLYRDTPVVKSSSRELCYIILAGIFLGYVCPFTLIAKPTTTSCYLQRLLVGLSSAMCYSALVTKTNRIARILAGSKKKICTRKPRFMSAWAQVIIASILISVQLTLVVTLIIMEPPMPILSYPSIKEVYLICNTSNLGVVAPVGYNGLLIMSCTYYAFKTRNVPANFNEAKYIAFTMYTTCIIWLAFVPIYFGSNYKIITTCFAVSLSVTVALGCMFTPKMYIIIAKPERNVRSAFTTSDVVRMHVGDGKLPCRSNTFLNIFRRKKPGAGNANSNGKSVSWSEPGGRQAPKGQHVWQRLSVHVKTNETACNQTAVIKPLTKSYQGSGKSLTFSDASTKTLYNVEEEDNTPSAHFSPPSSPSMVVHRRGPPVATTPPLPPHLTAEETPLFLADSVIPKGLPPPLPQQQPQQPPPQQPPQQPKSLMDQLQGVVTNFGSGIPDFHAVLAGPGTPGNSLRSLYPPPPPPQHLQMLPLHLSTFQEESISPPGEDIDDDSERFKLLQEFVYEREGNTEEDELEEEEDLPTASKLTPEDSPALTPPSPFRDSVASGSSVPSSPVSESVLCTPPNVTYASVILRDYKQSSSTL
T2 sequence (P31421 19-872): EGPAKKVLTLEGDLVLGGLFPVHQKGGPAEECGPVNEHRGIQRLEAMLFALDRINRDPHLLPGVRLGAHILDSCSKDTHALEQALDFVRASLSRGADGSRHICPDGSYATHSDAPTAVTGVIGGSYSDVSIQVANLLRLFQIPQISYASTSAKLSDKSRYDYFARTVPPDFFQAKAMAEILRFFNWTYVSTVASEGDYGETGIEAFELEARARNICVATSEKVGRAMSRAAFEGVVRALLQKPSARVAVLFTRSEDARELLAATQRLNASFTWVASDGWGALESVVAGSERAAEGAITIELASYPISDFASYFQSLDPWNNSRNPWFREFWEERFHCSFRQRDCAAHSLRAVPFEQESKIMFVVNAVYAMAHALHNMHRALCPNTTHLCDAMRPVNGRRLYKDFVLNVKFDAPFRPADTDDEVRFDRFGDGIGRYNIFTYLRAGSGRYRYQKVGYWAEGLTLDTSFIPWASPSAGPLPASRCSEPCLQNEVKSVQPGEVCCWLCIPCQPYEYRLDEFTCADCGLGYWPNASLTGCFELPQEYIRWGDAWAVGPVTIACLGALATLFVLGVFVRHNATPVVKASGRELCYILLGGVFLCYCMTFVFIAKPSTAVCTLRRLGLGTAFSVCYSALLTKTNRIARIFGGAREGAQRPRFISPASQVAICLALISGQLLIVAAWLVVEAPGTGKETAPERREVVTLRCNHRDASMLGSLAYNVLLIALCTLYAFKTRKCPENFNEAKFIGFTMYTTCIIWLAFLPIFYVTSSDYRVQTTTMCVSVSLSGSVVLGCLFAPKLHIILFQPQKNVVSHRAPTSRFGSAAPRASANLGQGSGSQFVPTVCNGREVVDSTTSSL
T3 sequence (P31423 33-912): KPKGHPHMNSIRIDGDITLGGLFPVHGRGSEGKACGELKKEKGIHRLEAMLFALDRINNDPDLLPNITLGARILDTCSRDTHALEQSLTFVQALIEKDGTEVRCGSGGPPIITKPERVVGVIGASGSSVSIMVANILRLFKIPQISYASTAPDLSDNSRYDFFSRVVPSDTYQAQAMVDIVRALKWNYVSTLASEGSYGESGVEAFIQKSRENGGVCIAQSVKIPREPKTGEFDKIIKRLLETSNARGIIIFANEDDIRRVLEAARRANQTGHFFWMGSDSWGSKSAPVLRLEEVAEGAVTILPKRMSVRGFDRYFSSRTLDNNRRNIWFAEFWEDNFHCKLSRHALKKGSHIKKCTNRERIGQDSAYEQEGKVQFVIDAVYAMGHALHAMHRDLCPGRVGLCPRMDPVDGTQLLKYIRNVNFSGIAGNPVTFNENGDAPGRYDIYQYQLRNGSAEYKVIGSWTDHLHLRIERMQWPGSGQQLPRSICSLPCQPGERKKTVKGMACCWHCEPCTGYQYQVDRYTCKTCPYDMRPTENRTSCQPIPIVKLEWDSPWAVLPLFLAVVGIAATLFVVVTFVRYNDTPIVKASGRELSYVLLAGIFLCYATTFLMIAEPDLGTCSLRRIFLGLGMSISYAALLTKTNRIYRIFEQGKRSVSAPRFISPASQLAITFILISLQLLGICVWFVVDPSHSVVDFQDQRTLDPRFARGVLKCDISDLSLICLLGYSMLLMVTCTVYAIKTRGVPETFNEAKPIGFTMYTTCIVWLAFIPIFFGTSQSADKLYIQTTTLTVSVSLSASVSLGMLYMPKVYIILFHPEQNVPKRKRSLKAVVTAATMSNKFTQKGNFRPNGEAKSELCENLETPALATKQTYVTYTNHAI

Kb (mGluR1a; HEK 293 cells, IP accumulation induced by Glu, Shild representation, read-out: mGluR1a KB (antagonist effect)): > 300 µM
EC50 (mGluR1a; HEK 293 cells, IP accumulation, read-out: mGluR1a EC50 (agonist effect)): > 3000 µM
inhibition of the responses induced by Glu in cells expressing mGluR2, in words (mGluR2): inhibit the responses induced by Glu
Kb (mGluR2; HEK 293 cells, IP accumulation induced by Glu, Shild representation, read-out: mGluR2 KB (antagonist effect)): > 300 µM
EC50 (mGluR2; HEK 293 cells, IP accumulation, read-out: mGluR2 EC50 (agonist effect)): > 3000 µM
Kb (mGluR4a; IP accumulation induced by Glu, Shild representation, read-out: mGluR4a KB (antagonist effect)): > 3000 µM
EC50 (mGluR4a; IP accumulation, read-out: mGluR4a EC50 (agonist effect)): 40 ± 8 µM
SMILES: NC1(C(=O)O)CC(C(=O)O)C(C(=O)O)C1 (racemic) [(=)-ACPT-III, 1-amino-cyclopentane-1,3,4 tricarboxylic acid]
inhibition of responses induced by NMDA or kainate, in words [1]: No significant inhibition
inhibition of the formation of IP induced by Glu in cells expressing mGluR1a, in words (mGluR1a): inhibit the formation of the IP's induced by the Glu
